The target of test [1] is T1, Muscarinic acetylcholine receptor M1 (Homo sapiens, UniProt P11229).
T1 sequence (P11229 whole entry): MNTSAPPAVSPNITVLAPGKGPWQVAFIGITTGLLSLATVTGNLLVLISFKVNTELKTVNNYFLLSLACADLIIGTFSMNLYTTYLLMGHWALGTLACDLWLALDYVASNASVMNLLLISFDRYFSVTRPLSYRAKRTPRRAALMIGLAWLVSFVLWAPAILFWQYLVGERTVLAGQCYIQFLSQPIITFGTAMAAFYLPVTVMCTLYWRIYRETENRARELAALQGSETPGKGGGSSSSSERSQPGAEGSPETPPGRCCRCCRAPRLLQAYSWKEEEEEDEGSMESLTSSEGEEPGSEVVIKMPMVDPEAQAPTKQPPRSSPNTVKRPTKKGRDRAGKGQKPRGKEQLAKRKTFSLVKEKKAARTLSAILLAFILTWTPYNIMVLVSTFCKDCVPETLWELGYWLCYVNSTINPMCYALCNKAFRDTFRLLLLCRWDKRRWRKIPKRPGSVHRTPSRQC
Kind of test: Displacement of [3H]QNB from muscarinic receptor 1 expressed in CHO-K1 cells. It is filed as cell-based.

Test [2] has as its target T2, Muscarinic acetylcholine receptor M2 (Rattus norvegicus, UniProt P10980).
T2 sequence (P10980 whole entry): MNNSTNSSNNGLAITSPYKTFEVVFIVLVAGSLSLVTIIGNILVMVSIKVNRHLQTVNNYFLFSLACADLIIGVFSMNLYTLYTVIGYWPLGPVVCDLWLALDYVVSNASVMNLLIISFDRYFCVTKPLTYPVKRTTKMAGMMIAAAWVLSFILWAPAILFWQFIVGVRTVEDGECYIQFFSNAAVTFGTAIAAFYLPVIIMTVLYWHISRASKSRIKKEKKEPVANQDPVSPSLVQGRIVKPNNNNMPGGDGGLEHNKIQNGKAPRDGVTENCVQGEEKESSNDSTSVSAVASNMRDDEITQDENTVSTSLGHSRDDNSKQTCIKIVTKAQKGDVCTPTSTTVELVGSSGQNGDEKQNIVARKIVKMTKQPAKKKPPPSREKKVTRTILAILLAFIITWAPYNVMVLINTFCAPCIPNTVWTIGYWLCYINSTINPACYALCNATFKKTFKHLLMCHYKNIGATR
Kind of test: Displacement of [3H]QNB from rat brain stem muscarinic receptor 2 (M2).

As to `C[C@@H]1OC(=O)[C@H]2C[C@H]3CCCC[C@@H]3[C@@H](/C=C/[C@H]3CCC[C@H](C)N3C)[C@@H]12` [HIMBACINE], the Kd in test [1] worked out at 168 nM; in test [2], 9.05 nM.

Consider `CN1CCCCC1/C=C/c1c2ccccc2cc2ccccc12` (stereo not given), for which the Kd in test [1] amounted to 679 nM; in test [2], 635 nM.

Turning to `CN1CCCC[C@H]1/C=C/C1c2ccccc2Cc2ccccc21`, the Kd was determined as 4.92 nM in test [1] and 2.19 nM in test [2].

For the molecule `CN1CCCCC1C/C=C/C1c2ccccc2Cc2ccccc21` (stereo not given), the Kd is 5.23 nM in test [1] and 22.6 nM in test [2].

With `CN1CCCC[C@@H]1CC=C1c2ccccc2Cc2ccccc21`, the Kd in test [1] came to 11.6 nM; in test [2], 14.5 nM.

Regarding `CN1CCCCC1CCC=C1c2ccccc2Cc2ccccc21` (stereo not given), the Kd in test [1] was determined as 4.99 nM; in test [2], 7.64 nM.

Regarding `CN1CCCCC1/C=C/C1c2ccccc2Cc2ccccc21` (racemic), the values for the Kd in test [1] and in test [2] were 1.75 nM and 20.5 nM, respectively.

With `CN1CCCCC1CC=C1c2ccccc2Cc2ccccc21` (racemic), the Kd in test [1] turned out to be 2.7 nM; in test [2], 3 nM.

On to `CN1CCCC[C@H]1CC=C1c2ccccc2Cc2ccccc21`, for which the Kd in test [1] turned out to be 24.2 nM; in test [2], 35 nM.

As to `CN1CCCC[C@@H]1/C=C/C1c2ccccc2Cc2ccccc21`, the Kd came out at 1.53 nM in test [1] and 3.17 nM in test [2].
